These results are taken from patent publication US20210246164A1, “PEPTIDIC PROTEIN KINASE C INHIBITORS AND USES THEREOF” (UNIVERSITE DE GENEVE, priority 2016, published 2021).

Series [1] has as its system primary human bronchial epithelial cell monolayers. As to the kind of experiment: Permeabilization of fluorescein-conjugated dextran (FD) across bronchial epithelial monolayers (cumulative release, Papp). In kind it is cell-based. As for the experimental part: To assess the potential effects of peptides of the invention on the permeabilization of therapeutic molecules, fluorescein-conjugated dextrans (FD) were used to as a model for assessing paracellular drug transport (apical to basolateral) across the epithelial monolayer.
To ensure that the integrity of the monolayer was maintained during the course of the experiment, trans-epithelial electrical resistance (TEER) was measured before and after these studies, as described below.
Mucilair™ human primary nasal and bronchial epithelial cells (Epithelix sarl, Geneva, Switzerland) were used (Huang et. al., 2013, Toxicol. in Vitro 27: 1151-1156).
Before each experiment, the culture medium was removed from each compartment and the monolayer was washed once with 200 μl of saline (0.9%) and once with warm Hanks' Balanced Salt Solution (HBSS) (37° C.). In the basolateral compartment, 600 μL of pre-warmed HBSS was placed and the cells were returned to the incubator at 37° C. for 30 minutes to equilibrate. After equilibration, the peptides of the invention were applied to the apical side of an epithelial monolayer 5 minutes prior to the addition of FD solution. Peptide 1 according to the invention (P1 of SEQ ID NO: 2) was tested in comparison with comparative peptides C1 (SEQ ID NO: 4) and C2 (SEQ ID NO: 5). FD having a molecular weight (MW) of 4 and 150 kDa were used.
All peptides were used at a final concentration of 10 μM. The vehicle was used as a control (CTRL). The FD solution was added to the apical compartment to make a final volume of 200 μl. Samples of 100 μL were taken from the basal compartment of each well every 30 minutes over a period of 150 minutes, with each volume being replaced with equal amount of fresh warm buffer to maintain sink condition. The fluorescence of FD was measured in black 96-well plates using a fluorescence plate reader (BioTek Synergy Mx plate reader, BioTek Instruments GmbH, Lucerne, Switzerland), using excitation and emission wavelengths of 485 and 520 nm, respectively. Cumulative release (ng) corresponds to the actual amount of drug released cumulatively and corresponds to the amount in the suspension medium at any time plus the amount of the drug lost during each sampling.
Trans-epithelial electrical resistance (TEER): After addition of 200 μl of culture medium to the apical compartment of the tissue cultures, resistance was measured across cultures with an EVOMX volt-ohm-meter (World Precision Instruments UK, Stevenage) in triplicate for each time point. The TEER values (Ω) were converted normalized by using the following formula: TEER (Ωcm^2)=(resistance value (Ω)−100 (Ω))×0.33 (cm^2), where 100Ω is the resistance of the membrane and 0.33 cm^2 is the total surface of the epithelium.
To assess the role of the membrane penetrating group (myristoyl) in peptides of the invention in the enhancing of the permeability of macromolecules through epithelial cell layers, the permeabilizing capacity of peptide P1 of the invention was compared to a comparative peptide C3 (SEQ ID NO: 6) corresponding to the same peptide without the myristoyl group. The permeabilizing capacity of a peptide P2 (SEQ ID NO: 3) of the invention was also assessed. Uptake experiments and TEER were conducted as described in Example 2.
To assess the duration of the permeabilization effect of the peptide of the invention, apparent permeability of peptides of various lengths was evaluated as follows. Apparent permeability refers to the amount of released FD at that time point when the sample is collected.
The tested Peptides, uptake experiments and TEER were as described in Example 2.
Apparent permeability of FD: The apparent permeability (Papp) of FD was calculated using equation 1: Papp=(dQ/dt)/A*C0 (1)

Series [2] has as its system TJ proteins occludin and ZO-1 in primary human nasal epithelial cell monolayers. As to the kind of experiment: Immunofluorescence of TJ proteins occludin and ZO-1, nasal cells (confocal microscopy). It counts as cell-based. As to conditions: 50 μM peptide, 2 hours. The protocol: The effect of peptides of the invention on the tight junction structure of human primary nasal and bronchial epithelial cells were evaluated by confocal microscopy as follows. Mucilair™ human primary nasal and bronchial epithelial cells (Epithelix Sarl, Geneva, Switzerland) were incubated with 50 μM of peptide of the invention P1 or comparative peptides C1 and C2 for 2 hours and washed twice with phosphate buffered saline (PBS) (without Ca^2+/Mg^2+) at 37° C. Cells were fixed with methanol/acetone (50:50) for 5 minutes at […], air-dried, and washed with TBST (mixture of tris-buffered saline (TBS) and Polysorbate 20). Cell monolayers were blocked using a solution of 3% bovine serum albumin (BSA) in PBS for 60 minutes at room temperature and incubated with primary antibody against occludin (Cat: 331588, Invitrogen, Zug, Switzerland); dilution (1:200)) and ZO-1 (zonula occludens-1 protein) (Cat: 339194, Invitrogen, Zug, Switzerland); dilution (1:200)) in dilution buffer. Samples were mounted (Vectashield mounting media with DAPI (4′,6-diamidino-2-phenylindole); Vector Laboratories) and assessed within the next 24 hours by using a laser-scanning confocal microscope (CLSM; Plan-Apochromat 63/1.40 (oil) DIC objective, Zeiss Axiovert 100M-LSM 510; Carl Zeiss, Oberkochen, Germany). […]

Series [3] relates to OCA_EGFR19del cultures (HCC827 cells). As to the kind of experiment: Tumor size in OncoCilAir non-small cell lung cancer model. It counts as cell-based. An excerpt: HCC827 cells (lung adenocarcinoma) mutated in the tyrosine kinase domain of the EGFR (epidermal growth factor receptor) were used (model OncoCilAir™, wherein Non-Small Cell Lung Cancer (NSCLC) cells were tagged with green fluorescent protein (GFP)).
Tumour morphometry was resolved by fluorescence microscopy using a Zeiss Axiocam microscope platform. Growth curves were based on various images were acquired every 2 days and the area of the green fluorescent protein positive (GFP^+) tumour was measured using the Image-Pro Plus Software (MediaCybernetics, Rockville, Md., USA). For each time point, the ratio of the total area occupied by tumours to the size of the insert was calculated and expressed as percentage of day 0, at the start of the treatment (tumor occupancy). Identical analyses settings, i.e. fixed fluorescence intensity threshold and fixed size threshold ([…]) were applied to all processed images. Percentage of tumour growth inhibition was calculated using the formula: (1−[tumour occupancy in treatment group/tumour occupancy in control group]×100).

The nature of series [4]: in vitro. As to conditions: human, Caco-2 cells.
Procedure: Viability of Caco-2 cells (human intestinal epithelial cell line) was determined by a cell proliferation assay using WST-1 based colorimetric assay. […] WST-1 reagent (diluted 1:10 in cell culture medium) was added as described in the instruction manual (Roche Diagnostics GMBH, Mannheim, Germany). Following 1-3 h incubation at 37° C. with the peptides or controls, absorbance at 450 nm (reference at 690 nm) was measured by a BioTek Synergy Mx plate reader. Percentage of cell viability was calculated based on the absorbance measured relative to that of cells exposed to only culture medium (control group). Sodium dodecyl sulfate (SDS) at 2% was used as a positive control for cell toxicity.
Where [5] appears, read: peptide 10 μM apical, 150 minutes, vs control.
[6] abbreviates: P1 1 μM apical + gefitinib 1 μM apical.

Where a SMILES comes first, the peptide text is derived from it. The star is where a group is joined. Myristoyl = CCCCCCCCCCCCCC(=O)*

In the case of `CCCCCCCCCCCCCC(=O)N[C@@H](C)C(=O)N[C@@H](CCCNC(=N)N)C(=O)N[C@@H](CCCNC(=N)N)C(=O)N[C@@H](Cc1c[nH]c2ccccc12)C(=O)N[C@@H](CCCNC(=N)N)C(=O)O` [Peptide P1, Myr-ARRWR] (Myristoyl-ARRWR-OH), in series [1] (setting [5]), the “permeability of FD of 150 kDa (cumulative release)” value is reported as “significantly increases the permeability” and the “permeability of fluorescein conjugated dextran of 4 kDa (cumulative release)” value is “increased the permeability of the fluorescein conjugated dextran of 4 kDa in a significant manner”. Besides, in series [1] (peptide 10 μM, 150 minutes), the “Papp for FD of 150 kDa over time” value is “immediate increase in the first 30 minutes and steadily decreased therefrom”; the “reversibility of permeabilization of FD 4 kDa (decrease in Papp overtime)” value is recorded as “reversible”. In series [1] (peptide 10 μM, FIG. 6), the “reversibility of the permeabilization effect, FD of 150 kDa” value is on record as “Reversibility of the permeabilization effect was also observed”. The “redistribution of occludin and ZO-1” value in series [2] is on record as “causes desired TJ proteins redistribution”. For the same compound, in series [3] (setting [6]), the “effect of combination on tumour size vs gefitinib alone” value is given as “significantly more efficacious than the gefitinib alone” and the “time at which maximal therapeutic effect was obtained” value was found to be 3 days. Also, in series [3] (P1 1 μM apical + gefitinib 1 μM basal), the “effect of combination on tumour progression vs gefitinib alone” value is listed as “significantly potentiated the effects of the drug on tumour progression”. In addition, in series [3] (P1 1 μM apical + gefitinib 5 μM basal), the “effect of combination on tumour progression vs gefitinib alone” value is “significantly potentiated the effects of the drug on tumour progression”. Also, the “effect on tumor size” value in series [3] (P1 alone 1 μM apical, 6 expositions over 14 days, vs DMSO) is given as “had no effect on tumor size”. In series [4], this compound gave a viability at 24 h, 100 µM of 76.7%.

Broadly, the viability is a read-out of living cells in per cent, often relative to untreated cells.
